What all share (format): in vivo
The test system of assay [1] is Echinochloa crus-galli (ECHCG). Description: Example B pre-emergence herbicidal activity, glasshouse pot test. The conditions noted are these: 312 h, rate 1000 g/ha, evaluated after 13 days, read-out: herbicidal damage ECHCG (100=total damage to plant; 0=no damage to plant). Here is the method: (§1) Seeds of a variety of test species were sown in standard soil in pots. After cultivation for one day (pre-emergence) or after 8 days cultivation (post-emergence) under controlled conditions in a glasshouse (at 24/16° C., day/night; 14 hours light; 65% humidity), the plants were sprayed with an aqueous spray solution derived from the formulation of the technical active ingredient in acetone/water (50:50) solution containing 0.5% Tween 20 (polyoxyethelyene sorbitan monolaurate, CAS RN 9005-64-5). The test plants were then grown in a glasshouse under controlled conditions in a glasshouse (at 24/16° C., day/night; 14 hours light; 65% humidity) and watered twice daily. After 13 days for pre and post-emergence, the test was evaluated (100=total damage to plant; 0=no damage to plant). Alopecurus myosuroides (ALOMY), Avena fatua (AVEFA), Setaria faberi (SETFA), Echinochloa crus-galli (ECHCG), Solanum nigrum (SOLNI) and Amaranthus retroflexus (AMARE) Pre-Emergence Activity

Assay [2] deals with Alopecurus myosuroides (ALOMY). Described as above. The conditions noted are these: 312 h, rate 1000 g/ha, evaluated after 13 days, read-out: herbicidal damage ALOMY (100=total damage to plant; 0=no damage to plant). Here is the method: as §1
Assay [3] has as its system Solanum nigrum (SOLNI). Described as above. The note with it: 312 h, rate 1000 g/ha, evaluated after 13 days, read-out: herbicidal damage SOLNI (100=total damage to plant; 0=no damage to plant). Here is the method:
as §1

Assay [4] relates to Amaranthus retroflexus (AMARE). The assay is described as above. The note with it: 312 h, rate 1000 g/ha, evaluated after 13 days, read-out: herbicidal damage AMARE (100=total damage to plant; 0=no damage to plant). Here is the method:
as §1

Assay [5] concerns Avena fatua (AVEFA). Described as above. The conditions noted are these: 312 h, rate 1000 g/ha, evaluated after 13 days, read-out: herbicidal damage AVEFA (100=total damage to plant; 0=no damage to plant). Here is the method:
as §1

For assay [6], the system named is Setaria faberi (SETFA). The assay is described as above. The conditions noted are these: 312 h, rate 1000 g/ha, evaluated after 13 days, read-out: herbicidal damage SETFA (100=total damage to plant; 0=no damage to plant). The protocol:
as §1

The test system of assay [7] is Echinochloa crus-galli (ECHCG). Description: Example B post-emergence herbicidal activity, glasshouse pot test. The note with it: 312 h, rate 1000 g/ha, evaluated after 13 days, read-out: herbicidal damage ECHCG (100=total damage to plant; 0=no damage to plant). Here is the method:
as §1, with “Post-Emergence” for “Pre-Emergence”

Assay [8] has as its system Alopecurus myosuroides (ALOMY). The assay is described as above. The note with it: 312 h, rate 1000 g/ha, evaluated after 13 days, read-out: herbicidal damage ALOMY (100=total damage to plant; 0=no damage to plant). The protocol: as §1, with “Post-Emergence” for “Pre-Emergence”
Assay [9] has as its system Solanum nigrum (SOLNI). The assay is described as above. The note with it: 312 h, rate 1000 g/ha, evaluated after 13 days, read-out: herbicidal damage SOLNI (100=total damage to plant; 0=no damage to plant). Here is the method: as §1, with “Post-Emergence” for “Pre-Emergence”
Assay [10] deals with Amaranthus retroflexus (AMARE). The assay is described as above. The conditions noted are these: 312 h, rate 1000 g/ha, evaluated after 13 days, read-out: herbicidal damage AMARE (100=total damage to plant; 0=no damage to plant). The protocol:
as §1, with “Post-Emergence” for “Pre-Emergence”

Assay [11] relates to Avena fatua (AVEFA). The assay is described as above. The conditions noted are these: 312 h, rate 1000 g/ha, evaluated after 13 days, read-out: herbicidal damage AVEFA (100=total damage to plant; 0=no damage to plant). Here is the method:
as §1, with “Post-Emergence” for “Pre-Emergence”

Assay [12] has as its system Setaria faberi (SETFA). The assay is described as above. The note with it: 312 h, rate 1000 g/ha, evaluated after 13 days, read-out: herbicidal damage SETFA (100=total damage to plant; 0=no damage to plant). The protocol:
as §1, with “Post-Emergence” for “Pre-Emergence”

In the case of `Cc1ccc(-c2cccnc2OCC2CC2)cc1C1=C(O)CC(CC2CCOCC2)CC1=O` (stereo not drawn) [Compound A-27], the pest or weed control at 1000 g/ha (in [1]; in assay [2]; with Solanum nigrum (SOLNI) [3]; in assay [4]; in the assay on Avena fatua (AVEFA) [5]; with Setaria faberi (SETFA) [6]) was 0% in each case. The pest or weed control at 1000 g/ha amounted to 30% in assay [7]; 10% in [8]; 0% in the assay with Solanum nigrum (SOLNI) [9]; 0% in assay [10]; 0% with Avena fatua (AVEFA) [11]; 60% with Setaria faberi (SETFA) [12].

Take `Cc1ccc(-c2ccc(F)cc2)cc1C1=C(O)CC(CC2CCOCC2)CC1=O` (stereo not drawn) [Compound A-39]: the pest or weed control at 1000 g/ha (in assay [1]; in assay [2]; in the assay on Solanum nigrum (SOLNI) [3]; in assay [4]; in the assay on Avena fatua (AVEFA) [5]; in the assay on Setaria faberi (SETFA) [6]) was 0% in each case. The pest or weed control at 1000 g/ha in assay [7] was 80%; in [8] it was 60%; with Solanum nigrum (SOLNI) [9], 0%; in assay [10], 0%; in the assay on Avena fatua (AVEFA) [11], 80%; with Setaria faberi (SETFA) [12], 90%.

In the case of `Cc1ccc(-c2ccc(OC(F)(F)F)cc2)cc1C1=C(O)CC(CC2CCOCC2)CC1=O` (stereo not drawn) [Compound A-29], the pest or weed control at 1000 g/ha in assay [1] was 20%; in [2] it was 20%; in the assay on Solanum nigrum (SOLNI) [3] it was 30%; in assay [4], 50%; with Avena fatua (AVEFA) [5], 0%; in the assay with Setaria faberi (SETFA) [6] it was 0%. Moreover, the pest or weed control at 1000 g/ha in assay [7] was 60%; in [8], 10%; in the assay with Solanum nigrum (SOLNI) [9], 20%; in assay [10], 70%; in the assay with Avena fatua (AVEFA) [11] it was 0%; in the assay on Setaria faberi (SETFA) [12] it was 60%.

On to `Cc1cc(-c2ccc(C)c(C3=C(O)CC(CC4CCOCC4)CC3=O)c2)ccc1F` (stereo not drawn) [Compound A-48], for which the pest or weed control at 1000 g/ha in [1] amounted to 20%; in assay [2], 0%; with Solanum nigrum (SOLNI) [3], 0%; in [4], 0%; in the assay with Avena fatua (AVEFA) [5], 0%; in the assay with Setaria faberi (SETFA) [6], 20%. Also, the pest or weed control at 1000 g/ha was 80% in [7]; 60% in assay [8]; 0% with Solanum nigrum (SOLNI) [9]; 10% in [10]; 60% in the assay with Avena fatua (AVEFA) [11]; 80% with Setaria faberi (SETFA) [12].

As to `Cc1ccc(-c2ccc(Cl)cc2)cc1C1=C(O)CC(CC2OCC3(CCOCC3)O2)CC1=O` (stereo not drawn) [Compound A-58], the pest or weed control at 1000 g/ha was determined as 60% in assay [1]; 20% in assay [2]; 0% in the assay on Solanum nigrum (SOLNI) [3]; 0% in [4]; 0% in the assay on Avena fatua (AVEFA) [5]; 30% in the assay on Setaria faberi (SETFA) [6]. In addition, the pest or weed control at 1000 g/ha in [7] was 90%; in assay [8] it was 60%; in the assay with Solanum nigrum (SOLNI) [9] it was 0%; in [10], 0%; in the assay with Avena fatua (AVEFA) [11], 40%; with Setaria faberi (SETFA) [12] it was 90%.

These data come from patent US8735322B2, “Herbicides” (Syngenta Limited, priority 2008, dated 2014).
